# Measurements published in patent publication US20220133894A1, “BISPHOSPHONATE-LINKED COMPOUNDS” (OREGON HEALTH & SCIENCE UNIVERSITY, priority 2019, published 2022).
# Columns and labels:
# [1] = system: prostate specific antigen (PSA); test: PSA expression by qRT/PCR in LNCaP cells; assay type: cell-based, human; details: LNCaP cells in androgen depleted media
# Protocol: (§1) Cells were cultured in media depleted of androgen and after a washout of 72 hrs were treated with the synthetic androgen R1881, KBU2046, enzalutamide and/or vehicle (control), and resultant effects upon induction of the androgen-responsive gene, prostate specific antigen (PSA) were measured (FIG. 3A).
# (§2) LNCaP or VCaP cells cultured in hormone free media were treated with R1881 (R), KBU2046 (46) and/or enzalutamide (E). (FIGS. 3A and 3B) Effects on AR-responsive gene expression. PSA expression was measured by qRT/PCR, normalized to GAPDH and expressed as a percent of control cells (N=3 replicates); * denotes P<0.05 for groups separated by bar. (FIGS. 3C and 3D) Effects on cell growth. Three day growth assays were performed. Data are the number of viable cells, expressed as % of control (N=3 replicates); * P<0.05 compared to control. (E) Effects on AR activation. Western blots of nuclear (N) and cytoplasmic (C) preparations of cell extracts were probed for AR, laminin 1 or α-tubulin. (FIGS. 3F and 3G) Effects on tumor outgrowth after androgen deprivation therapy. LNCaP/AR-luc cells were implanted subcutaneously (N=6 mice/cohort) or orthotopic (N=15 mice/cohort were implanted; N=5 yielded tumors) into castrate mice, treatment with KBU2046 began as noted, and weekly IVIS imaging performed. Data are tumor size, expressed as luminescence intensity. All data are expressed as mean±SEM.
# (§3) RNA was isolated and qRT/PCR performed as previously described by us (Ding et al., J Biomol Tech 18, 321-330 (2007)). Resultant data were analyzed using the 2^−ΔΔt method (Livak et al., Methods 25, 402-408 (2001)), normalized to GAPDH, for the following primer/probe sets (ABI) PSA (Hs02576345_m1) and GAPDH (Hs99999905_m1). Assays were performed in triplicate, and were repeated.
# [2] = system: prostate specific antigen (PSA); test: PSA expression by qRT/PCR in VCaP cells; assay type: cell-based, human
# Protocol: as §1, §2, §3
# [3] = system: LNCaP/AR-luc cells; test: Castration resistant PCa orthotopic implantation, tumor outgrowth; assay type: in vivo, mice; details: orthotopic implants, 80 mg/kg KBU2046 oral, treatment from 12 weeks
# Protocol: To complete our assessments of the androgen related paradigm, the effect of KBU2046 on resistance to hormone therapy was evaluated. The outgrowth of LNCaP/AR-luc cells in castrate mice is routinely utilized as a model to emulate the transition to a castration resistant phenotype (Tran et al., Science 324, 787-790 (2009)). In this model, tumor outgrowth is detectable ˜8 weeks post implantation, and growth kinetics are typically monitored until 16 weeks post implantation. Here, two treatment approaches were investigated, the effects of beginning treatment early at 4 weeks, or late at 12 weeks, and were performed in mice receiving subcutaneous or orthotopic implants, respectively (FIGS. 3F and 3G).
# LNCaP or VCaP cells cultured in hormone free media were treated with R1881 (R), KBU2046 (46) and/or enzalutamide (E). (FIGS. 3A and 3B) Effects on AR-responsive gene expression. PSA expression was measured by qRT/PCR, normalized to GAPDH and expressed as a percent of control cells (N=3 replicates); * denotes P<0.05 for groups separated by bar. (FIGS. 3C and 3D) Effects on cell growth. Three day growth assays were performed. Data are the number of viable cells, expressed as % of control (N=3 replicates); * P<0.05 compared to control. (E) Effects on AR activation. […] Data are tumor size, expressed as luminescence intensity. All data are expressed as mean±SEM. […]
# [4] = system: RAW 267.4 cells; test: Osteoclast morphology and maturation (actin/DAPI immunofluorescence, TRAP staining); assay type: cell-based, mouse
# Source text: Treatment of RAW 267.4 cells with KBU2046 induces several structural and functional changes. It reduces RANKL-mediated formation of multinucleated cells, and those that do form have lower numbers of nuclei (see 40× panels, FIG. 4B). The characteristic prominent actin ring (white arrow) surrounding the resorptive cavity (yellow arrow) is readily apparent in control cells treated with RANKL ligand, but is lacking in KBU2046-treated cells (100×, panels). Consistent with it inhibiting maturation of RAW 267.4 cells, TRAP staining is decreased in KBU2046-treated cells (FIG. 4C).
# FIG. 4 represents the KBU2046 inhibition of osteoclast function. FIG. 4A compares effects on Raf1 activation. RAW 267.4 cells were treated with RANKL for 4 days, treated with 10 μM KBU2046 for the indicated time periods, and Western blot for the denoted proteins performed. (B) Effects on cell morphology. RAW 267.4 cells were treated with RANKL and with KBU2046 for 4 days, or not, and denoted, and stained for actin (green) and DAPI (blue); white arrow denotes an actin ring, yellow arrow a resorptive cavity. Representative immunofluorescent images are depicted. (C) Tartrate resistant acid phosphatase (TRAP) expression. Cells were treated as in B, stained for TRAP (denoted by presence of red), and representative images from light microscopy depicted. (D) Bone degradation. RAW 267.4 cells were plated onto Osteo Assay plates, treated with RANKL for 6 days and with KBU2046 (or vehicle for controls) as indicated and bone surface area quantified. Data are the mean±SEM (N=3 replicates) of bone surface area, expressed as the percentage of control cells; * denotes P<0.05 compared to control.
# Raw 264.7 cells were grown in differentiation medium (described below), with or without KBU2046, for 4 days on a Chamber Slide (Nunc Lab-Tek). Chambers were washed once with PBS, followed by 10-minute fixation in cold 10% neutral-buffered formalin (VWR) and a post-fixation wash with PBS. […] The cells were then incubated for 2 hours at 4° C. in Dylight Phallodin (Cell Signaling technology, #12935) antibody diluted 1:40 in 1×PBS with 1% BSA and 0.3% Triton X-100. Subsequently, the slide was washed once with PBS, a coverslip mounted with ProLong Gold Antifade Reagent with DAPI (Cell Signaling Technology, #8961), and imaged on a Confocal Microscope (Nikon/Yokogawa Spinning Disc).
# [5] = system: PC3-luc cells; test: PCa intracardiac injection model, bone destruction by CT and survival; assay type: in vivo, mice; details: oral 150 mg KBU2046/kg daily; intraperitoneal ZA 100 μg/kg weekly; CT
compound,measurement,setting,value
"O=C1c2ccccc2OCC1c1ccc(F)cc1 (stereo not shown) [KBU2046, 3-(4-fluorophenyl)chroman-4-one]",PSA expression,[1],no significant effect
same,decrease of PSA expression in R1881 treated cells,"[2]; VCaP cells, R1881 treated",36%
same,relative increase of PSA expression in control cells,"[2]; VCaP control cells, very low baseline",14%
same,tumor growth (outgrowth in castrate mice),[3],did not alter
same,RANKL-mediated formation of multinucleated cells,[4]; RANKL and KBU2046 for 4 days,reduces
same,TRAP staining,[4]; RANKL and KBU2046 for 4 days,decreased
same,actin ring surrounding the resorptive cavity,[4]; RANKL and KBU2046 for 4 days,lacking
same,cellular extensions of undifferentiated cells,[4]; absence of RANKL,markedly reduces
same,improvement of femur bone density compared to control,[5],22±2.4%
same,inhibition of bone destruction in the mandible compared to control,[5],33±4.2%
